The molecules below were run on HT-29 (assay: Growth inhibition of human HT-29 cells assessed as cell growth at 10 uM incubated for 48 hrs by sulforhodamine B assay relative to control). Conditions: HT-29, 48 h, read-out: Activity.
Assay type: functional

Row | Structure (SMILES) | growth at 10 µM [%]
1 | Cc1nc2cc(O)c(O)cc2cc1Oc1ccc(NC(=O)Nc2ccc(Cl)c(Cl)c2)cc1 | 48

What follows are molecules tested on IGROV-1 (assay: Growth inhibition of human IGROV1 cells assessed as cell growth at 10 uM incubated for 48 hrs by sulforhodamine B assay relative to control). Conditions: IGROV-1, 48 h, read-out: Activity.
Assay type: functional

Row | Structure (SMILES) | growth at 10 µM [%]
2 | Cc1nc2cc(O)c(O)cc2cc1Oc1ccc(NC(=O)Nc2ccc(Cl)c(Cl)c2)cc1 | 67.1

These molecules were tested on SF-268 (assay: Growth inhibition of human SF268 cells assessed as cell growth at 10 uM incubated for 48 hrs by sulforhodamine B assay relative to control). Conditions: SF-268, 48 h, read-out: Activity.
Assay type: functional

Row | Structure (SMILES) | growth at 10 µM [%]
3 | Cc1nc2cc(O)c(O)cc2cc1Oc1ccc(NC(=O)Nc2ccc(Cl)c(Cl)c2)cc1 | 65.5

What follows are molecules tested on NCI-H23 (assay: Growth inhibition of human NCI-H23 cells assessed as cell growth at 10 uM incubated for 48 hrs by sulforhodamine B assay relative to control). Conditions: NCI-H23, 48 h, read-out: Activity.
Assay type: functional

Row | Structure (SMILES) | growth at 10 µM [%]
4 | Cc1nc2cc(O)c(O)cc2cc1Oc1ccc(NC(=O)Nc2ccc(Cl)c(Cl)c2)cc1 | 62.8

The molecules below were run on LOX IMVI (assay: Growth inhibition of human LOXIMVI cells assessed as cell growth at 10 uM incubated for 48 hrs by sulforhodamine B assay relative to control). Conditions: read-out: Activity.
Assay type: functional

Row | Structure (SMILES) | growth at 10 µM [%]
5 | Cc1nc2cc(O)c(O)cc2cc1Oc1ccc(NC(=O)Nc2ccc(Cl)c(Cl)c2)cc1 | 0.46

The molecules below were run on NCI-H460 (assay: Growth inhibition of human NCI-H460 cells assessed as cell growth at 10 uM incubated for 48 hrs by sulforhodamine B assay relative to control). Conditions: NCI-H460, 48 h, read-out: Activity.
Assay type: functional

Row | Structure (SMILES) | growth at 10 µM [%]
6 | Cc1nc2cc(O)c(O)cc2cc1Oc1ccc(NC(=O)Nc2ccc(Cl)c(Cl)c2)cc1 | 62.1

These molecules were tested on Malme-3M (assay: Growth inhibition of human MALME-3M cells assessed as cell growth at 10 uM incubated for 48 hrs by sulforhodamine B assay relative to control). Conditions: read-out: Activity.
Assay type: functional

Row | Structure (SMILES) | growth at 10 µM [%]
7 | Cc1nc2cc(O)c(O)cc2cc1Oc1ccc(NC(=O)Nc2ccc(Cl)c(Cl)c2)cc1 | 85.2

Each molecule was assayed on SF-295 (assay: Growth inhibition of human SF295 cells assessed as cell growth at 10 uM incubated for 48 hrs by sulforhodamine B assay relative to control). Conditions: SF-295, 48 h, read-out: Activity.
Assay type: functional

Row | Structure (SMILES) | growth at 10 µM [%]
8 | Cc1nc2cc(O)c(O)cc2cc1Oc1ccc(NC(=O)Nc2ccc(Cl)c(Cl)c2)cc1 | 95.9

Each molecule was assayed on HCT-15 (assay: Growth inhibition of human HCT15 cells assessed as cell growth at 10 uM incubated for 48 hrs by sulforhodamine B assay relative to control). Conditions: HCT-15, 48 h, read-out: Activity.
Assay type: functional

Row | Structure (SMILES) | growth at 10 µM [%]
9 | Cc1nc2cc(O)c(O)cc2cc1Oc1ccc(NC(=O)Nc2ccc(Cl)c(Cl)c2)cc1 | 37.2

These molecules were tested on SF-539 (assay: Growth inhibition of human SF539 cells assessed as cell growth at 10 uM incubated for 48 hrs by sulforhodamine B assay relative to control). Conditions: SF-539, 48 h, read-out: Activity.
Assay type: functional

Row | Structure (SMILES) | growth at 10 µM [%]
10 | Cc1nc2cc(O)c(O)cc2cc1Oc1ccc(NC(=O)Nc2ccc(Cl)c(Cl)c2)cc1 | 56.9

The molecules below were run on A498 (assay: Growth inhibition of human A498 cells assessed as cell growth at 10 uM incubated for 48 hrs by sulforhodamine B assay relative to control). Conditions: A498, 48 h, read-out: Activity.
Assay type: functional

Row | Structure (SMILES) | growth at 10 µM [%]
11 | Cc1nc2cc(O)c(O)cc2cc1Oc1ccc(NC(=O)Nc2ccc(Cl)c(Cl)c2)cc1 | 118

What follows are molecules tested on U-251 (assay: Growth inhibition of human U251 cells assessed as cell growth at 10 uM incubated for 48 hrs by sulforhodamine B assay relative to control). Conditions: U-251, 48 h, read-out: Activity.
Assay type: functional

Row | Structure (SMILES) | growth at 10 µM [%]
12 | Cc1nc2cc(O)c(O)cc2cc1Oc1ccc(NC(=O)Nc2ccc(Cl)c(Cl)c2)cc1 | 41.4

What follows are molecules tested on K562 (assay: Growth inhibition of human K562 cells assessed as cell growth at 10 uM incubated for 48 hrs by sulforhodamine B assay relative to control). Conditions: K562, 48 h, read-out: Activity.
Assay type: functional

Row | Structure (SMILES) | growth at 10 µM [%]
13 | Cc1nc2cc(O)c(O)cc2cc1Oc1ccc(NC(=O)Nc2ccc(Cl)c(Cl)c2)cc1 | 53.9

These molecules were tested on MCF7 (assay: Growth inhibition of human MCF7 cells assessed as cell growth at 10 uM incubated for 48 hrs by sulforhodamine B assay relative to control). Conditions: MCF7, 48 h, read-out: Activity.
Assay type: functional

Row | Structure (SMILES) | growth at 10 µM [%]
14 | Cc1nc2cc(O)c(O)cc2cc1Oc1ccc(NC(=O)Nc2ccc(Cl)c(Cl)c2)cc1 | 76.2

These molecules were tested on SK-MEL-2 (assay: Growth inhibition of human SK-MEL-2 cells assessed as cell growth at 10 uM incubated for 48 hrs by sulforhodamine B assay relative to control). Conditions: SK-MEL-2, 48 h, read-out: Activity.
Assay type: functional

Row | Structure (SMILES) | growth at 10 µM [%]
15 | Cc1nc2cc(O)c(O)cc2cc1Oc1ccc(NC(=O)Nc2ccc(Cl)c(Cl)c2)cc1 | 77.7

These molecules were tested on HOP-92 (assay: Growth inhibition of human HOP92 cells assessed as cell growth at 10 uM incubated for 48 hrs by sulforhodamine B assay relative to control). Conditions: HOP-92, 48 h, read-out: Activity.
Assay type: functional

Row | Structure (SMILES) | growth at 10 µM [%]
16 | Cc1nc2cc(O)c(O)cc2cc1Oc1ccc(NC(=O)Nc2ccc(Cl)c(Cl)c2)cc1 | 37.5

These molecules were tested on OVCAR-4 (assay: Growth inhibition of human OVCAR4 cells assessed as cell growth at 10 uM incubated for 48 hrs by sulforhodamine B assay relative to control). Conditions: OVCAR-4, 48 h, read-out: Activity.
Assay type: functional

Row | Structure (SMILES) | growth at 10 µM [%]
17 | Cc1nc2cc(O)c(O)cc2cc1Oc1ccc(NC(=O)Nc2ccc(Cl)c(Cl)c2)cc1 | 67.7

Each molecule was assayed on MDA-MB-435 (assay: Growth inhibition of human MDA-MB-435 cells assessed as cell growth at 10 uM incubated for 48 hrs by sulforhodamine B assay relative to control). Conditions: MDA-MB-435, 48 h, read-out: Activity.
Assay type: functional

Row | Structure (SMILES) | growth at 10 µM [%]
18 | Cc1nc2cc(O)c(O)cc2cc1Oc1ccc(NC(=O)Nc2ccc(Cl)c(Cl)c2)cc1 | 54.2

What follows are molecules tested on OVCAR-3 (assay: Growth inhibition of human OVCAR3 cells assessed as cell growth at 10 uM incubated for 48 hrs by sulforhodamine B assay relative to control). Conditions: OVCAR-3, 48 h, read-out: Activity.
Assay type: functional

Row | Structure (SMILES) | growth at 10 µM [%]
19 | Cc1nc2cc(O)c(O)cc2cc1Oc1ccc(NC(=O)Nc2ccc(Cl)c(Cl)c2)cc1 | 67.9

What follows are molecules tested on COLO 205 (assay: Growth inhibition of human COLO205 cells assessed as cell growth at 10 uM incubated for 48 hrs by sulforhodamine B assay relative to control). Conditions: COLO 205, 48 h, read-out: Activity.
Assay type: functional

Row | Structure (SMILES) | growth at 10 µM [%]
20 | Cc1nc2cc(O)c(O)cc2cc1Oc1ccc(NC(=O)Nc2ccc(Cl)c(Cl)c2)cc1 | 34.7

The molecules below were run on 786-0 (assay: Growth inhibition of human 786-0 cells assessed as cell growth at 10 uM incubated for 48 hrs by sulforhodamine B assay relative to control). Conditions: 786-0, 48 h, read-out: Activity.
Assay type: functional

Row | Structure (SMILES) | growth at 10 µM [%]
21 | Cc1nc2cc(O)c(O)cc2cc1Oc1ccc(NC(=O)Nc2ccc(Cl)c(Cl)c2)cc1 | 103

What follows are molecules tested on SK-MEL-5 (assay: Growth inhibition of human SK-MEL-5 cells assessed as cell growth at 10 uM incubated for 48 hrs by sulforhodamine B assay relative to control). Conditions: SK-MEL-5, 48 h, read-out: Activity.
Assay type: functional

Row | Structure (SMILES) | growth at 10 µM [%]
22 | Cc1nc2cc(O)c(O)cc2cc1Oc1ccc(NC(=O)Nc2ccc(Cl)c(Cl)c2)cc1 | -42.2

The molecules below were run on ACHN (assay: Growth inhibition of human ACHN cells assessed as cell growth at 10 uM incubated for 48 hrs by sulforhodamine B assay relative to control). Conditions: read-out: Activity.
Assay type: functional

Row | Structure (SMILES) | growth at 10 µM [%]
23 | Cc1nc2cc(O)c(O)cc2cc1Oc1ccc(NC(=O)Nc2ccc(Cl)c(Cl)c2)cc1 | 39

Each molecule was assayed on CAKI-1 (assay: Growth inhibition of human Caki1 cells assessed as cell growth at 10 uM incubated for 48 hrs by sulforhodamine B assay relative to control). Conditions: CAKI-1, 48 h, read-out: Activity.
Assay type: functional

Row | Structure (SMILES) | growth at 10 µM [%]
24 | Cc1nc2cc(O)c(O)cc2cc1Oc1ccc(NC(=O)Nc2ccc(Cl)c(Cl)c2)cc1 | 27.3

These molecules were tested on T47D (assay: Growth inhibition of human T47D cells assessed as cell growth at 10 uM incubated for 48 hrs by sulforhodamine B assay relative to control). Conditions: read-out: Activity.
Assay type: functional

Row | Structure (SMILES) | growth at 10 µM [%]
25 | Cc1nc2cc(O)c(O)cc2cc1Oc1ccc(NC(=O)Nc2ccc(Cl)c(Cl)c2)cc1 | 62.2

Each molecule was assayed on SNB-19 (assay: Growth inhibition of human SNB19 cells assessed as cell growth at 10 uM incubated for 48 hrs by sulforhodamine B assay relative to control). Conditions: SNB-19, 48 h, read-out: Activity.
Assay type: functional

Row | Structure (SMILES) | growth at 10 µM [%]
26 | Cc1nc2cc(O)c(O)cc2cc1Oc1ccc(NC(=O)Nc2ccc(Cl)c(Cl)c2)cc1 | 49

Each molecule was assayed on UO-31 (assay: Growth inhibition of human UO31 cells assessed as cell growth at 10 uM incubated for 48 hrs by sulforhodamine B assay relative to control). Conditions: UO-31, 48 h, read-out: Activity.
Assay type: functional

Row | Structure (SMILES) | growth at 10 µM [%]
27 | Cc1nc2cc(O)c(O)cc2cc1Oc1ccc(NC(=O)Nc2ccc(Cl)c(Cl)c2)cc1 | 58.6

The molecules below were run on NCI-H226 (assay: Growth inhibition of human NCI-H226 cells assessed as cell growth at 10 uM incubated for 48 hrs by sulforhodamine B assay relative to control). Conditions: NCI-H226, 48 h, read-out: Activity.
Assay type: functional

Row | Structure (SMILES) | growth at 10 µM [%]
28 | Cc1nc2cc(O)c(O)cc2cc1Oc1ccc(NC(=O)Nc2ccc(Cl)c(Cl)c2)cc1 | 38.3

The molecules below were run on OVCAR-5 (assay: Growth inhibition of human OVCAR5 cells assessed as cell growth at 10 uM incubated for 48 hrs by sulforhodamine B assay relative to control). Conditions: OVCAR-5, 48 h, read-out: Activity.
Assay type: functional

Row | Structure (SMILES) | growth at 10 µM [%]
29 | Cc1nc2cc(O)c(O)cc2cc1Oc1ccc(NC(=O)Nc2ccc(Cl)c(Cl)c2)cc1 | 122

These molecules were tested on A549 (assay: Growth inhibition of human A549/ATCC cells assessed as cell growth at 10 uM incubated for 48 hrs by sulforhodamine B assay relative to control). Conditions: A549, 48 h, read-out: Activity.
Assay type: functional

Row | Structure (SMILES) | growth at 10 µM [%]
30 | Cc1nc2cc(O)c(O)cc2cc1Oc1ccc(NC(=O)Nc2ccc(Cl)c(Cl)c2)cc1 | 50.5

Each molecule was assayed on HL-60(TB) (assay: Growth inhibition of human HL-60(TB) cells assessed as cell growth at 10 uM incubated for 48 hrs by sulforhodamine B assay relative to control). Conditions: HL-60, 48 h, read-out: Activity.
Assay type: functional

Row | Structure (SMILES) | growth at 10 µM [%]
31 | Cc1nc2cc(O)c(O)cc2cc1Oc1ccc(NC(=O)Nc2ccc(Cl)c(Cl)c2)cc1 | 96.8

These molecules were tested on UACC-62 (assay: Growth inhibition of human UACC62 cells assessed as cell growth at 10 uM incubated for 48 hrs by sulforhodamine B assay relative to control). Conditions: UACC-62, 48 h, read-out: Activity.
Assay type: functional

Row | Structure (SMILES) | growth at 10 µM [%]
32 | Cc1nc2cc(O)c(O)cc2cc1Oc1ccc(NC(=O)Nc2ccc(Cl)c(Cl)c2)cc1 | 84.5

From ChEMBL document CHEMBL3994622, “Design and synthesis of new RAF kinase-inhibiting antiproliferative quinoline derivatives. Part 2: Diarylurea derivatives” (Eur J Med Chem, 2017)
